# Where two headings read alike, the source gives them in different places.
# Key:
# MCF7 3D spheroids = test: Cytotoxicity on MCF7 3D multicellular spheroids (acid phosphatase method); details: for cytotoxicity at 50 µM: MCF7, 120 h, read-out: Mean of % cytotoxicity ± S.D
# Procedure: (§1) Eighty pre-plated synthetic chemical compounds were screened on two human cell lines: MCF7 (ATCC® HTB-22™), a Caucasian breast adenocarcinoma model, and hTERT-RPE-1 (ATCC® CRL-4000™), a normal retinal epithelial cell line immortalized by hTERT telomerase. […] The cells were cultured in DMEM-F12 medium supplemented with L-glutamine and 10% fetal bovine serum, all were purchase from Biowest (Biotechnology company in Nuaillé, France), and maintained in a controlled incubator environment set at 37 °C with 5% CO2 and 95% humidity.
# 3-D spheroid models were generated from MCF7 cancer and hTERT-RPE1 normal cells were seeded at 10,000 and 50,000 cells/well, respectively, in poly-HEMA coated round bottom plates according to the protocol previously mentioned[44]. The cells were incubated for 5 days to generate the spheroids with diameter of 500 ± 20 µm. The spheroids were imaged using Olympus S100, U-CMAD3 camera connected to Olympus inverted microscope and the diameter of the spheroids was measured using Cellscen-Entry software. Test compounds were added in triplicate to a final concentration of 50 µM and were incubated for 120 h. […] At the end of incubation, cytotoxicity was determined using the acid phosphatase method[45]. After washing twice with 250 μL PBS buffer, 100 μL of 0.1 M sodium citrate, 0.1% Triton X-100, p-nitrophenylphosphate (2 mg/ml) (Pierce Biotechnology Inc., Rockford, IL) was added to each well and incubated for 1.5 h at 37 °C. After incubation, 10 μL of 1N NaOH stop solution was added to each well, and absorbance was read at 405 nm. Cytotoxicity was calculated according to the following equation:
# MCF7 = test: Cytotoxicity on MCF7 monolayers (MTT assay); details: for cytotoxicity at 50 µM: Homo sapiens, MCF7, 72 h, read-out: Mean of % cytotoxicity ± SD
# Procedure: as §1
# MCF7 cells were seeded in flat-bottom 96-well plates with a concentration of 20,000 cells/well, and were left overnight. The compounds were tested at a final concentration of 50 µM. Doxorubicin was used as a positive control and 0.5% DMSO as a negative control. The treatment duration was 72 h. The cytotoxicity was then assessed using the MTT assay, as described by Mosmann[43].
# MCF7 cell line = test: Pro-apoptotic activity, M30 Cytodeath ELISA (CK18-Asp396); assay type: cell-based, human; details: MCF7 monolayers, 50 µM, 24 h
# Procedure: The pro-apoptotic activity is measured as fold increase of the spontaneous apoptosis occurred in the DMSO treated negative control ± standard deviation.
# The cutoff was determined as fourfold increase in the apoptosis signal of the negative control.
# The accumulation of CK18-Asp396 in treated MCF7 cell cultures was quantified using the M-30 Cytodeath® ELISA kit according to the manufacturer’s instructions. Briefly, the MCF7 cell line monolayers were exposed to the chemical compounds at a concentration of 50 µM. Following 24 h of incubation, the culture medium was supplemented with 0.1% NP40. Subsequently, aliquots of 25 µL from each well, containing CK18 released into the medium from attached and floating cells and cell fragments, were subjected to the ELISA assay. Cleaved CK18 levels were determined by measuring the absorbance at 450 nm[46].
# MCF7 breast cancer cells = test: Gene expression profiling by real-time PCR (p53, Bax, Bcl-2, IL-6, TNF-alpha, MMP1); assay type: cell-based, human; details: MCF7, IC50 concentration, 24 h, qRT-PCR
# Procedure: Total RNA was extracted from both control and treated cells using the RNeasy kit. Up to one million cells were subjected to disruption in Buffer RLT, homogenization, and ethanol treatment to promote selective binding of RNA to the RNeasy membrane. High-purity RNA was subsequently eluted using RNase-free water. All binding, washing, and elution steps were performed using centrifugation in a micro-centrifuge. The sample was then applied to an RNeasy Mini spin column, enabling total RNA retention on the membrane while contaminants were efficiently eliminated. The RNA was then used as a template for real-time PCR to quantify the mRNA levels of genes. Two sets of primers were used—one for the IL-6, TNF-alpha, MMP1, p53, Bcl-2, and Bax genes and another for the endogenous control gene, β-actin (Table 6). The real-time PCR reaction was carried out with the following cycling conditions: 50 °C for 45 min (cDNA synthesis), followed by 40 cycles of 95 °C for 10 s and 60 °C for 60 s. A negative control was included to ensure primer specificity and rule out contamination. Finally, the statistical analysis of the expression of the genes was performed using one-way ANOVA followed by the Tukey–Kramer post-test.
# hTERT-RPE1 3D spheroids = test: Cytotoxicity on normal RPE1 3D spheroids (acid phosphatase method); assay type: cell-based, human; details: 120 h
# Procedure: These cell lines were generously provided by Prof. Stig Linder, Karolinska Institute (Sweden).
# Cytotoxicity was calculated according to the following equation: […]
# [1] = Homo sapiens, MCF7, read-out: IC50 (µM) for MCF7 ± SD, MCF7 3D spheroids
# [2] = read-out: IC50 (µM) for MCF7 ± SD, MCF7 3D spheroids
Compound,cytotoxicity at 50 µM (MCF7 3D spheroids; Homo sapiens) [%],cytotoxicity at 50 µM (MCF7) [%],further results
"Cc1cccc(C)c1NC(=O)COC(=S)c1sc2ccccc2c1Cl [A07, 2-(2,6-dimethylanilino)-2-oxoethyl 3-chlorobenzo[b] thiophene-2-carbothioate]",75.1 ± 0.53,36.5 ± 1.2,IC50 (MCF7 3D spheroids; [1]): 31.7 ± 1.2 µM; Fold increase (apoptosis signal vs DMSO negative control) (MCF7 cell line): 3.64 fold
"Nc1ccccc1SCC=CCSc1ccccc1N [C02, 2-({4-[(2-aminophenyl)thio]but-2-enyl}thio)aniline]",87.3 ± 4.5,100 ± 0.003,"Expression of apoptosis-related genes (Bax, P53, Bcl-2) (MCF7 breast cancer cells): moderate pro-apoptotic effect compared to the positive control; IC50 (MCF7 3D spheroids; [1]): < 26 µM; IC50 (MCF7 3D spheroids; [2]): 25.3 ± 1.2 µM; Cytotoxic effect% ± SD RPE1(50µM) (hTERT-RPE1 3D spheroids): 18.3 ± 0.4%"
"O=C(NCCc1c[nH]c2ccccc12)Nc1ccc(Cl)cc1 [D08, N-(4-chlorophenyl)-N'-[2-(1H-indol-3-yl)ethyl]urea]",74 ± 2.9,97.7 ± 0.47,IC50 (MCF7 3D spheroids; [1]): 36.9 ± 0.6 µM; Cytotoxic effect% ± SD RPE1(50µM) (hTERT-RPE1 3D spheroids): 39.4 ± 1%; Fold increase (apoptosis signal vs DMSO negative control) (MCF7 cell line): 2.14 fold
"CCOC(=O)c1c(NS(=O)(=O)c2cccc3nsnc23)sc(C)c1C [F03, ethyl 2-[(2,1,3-benzothiadiazol-4-ylsulfonyl)amino]-4,5-dimethylthiophene-3-carboxylate]",91.5 ± 0.5,70 ± 4,"Expression of apoptosis-related genes (Bax, P53, Bcl-2) (MCF7 breast cancer cells): moderate pro-apoptotic effect compared to the positive control; IC50 (MCF7 3D spheroids; [1]): < 26 µM; IC50 (MCF7 3D spheroids; [2]): 18.8 ± 1.3 µM; Cytotoxic effect% ± SD RPE1(50µM) (hTERT-RPE1 3D spheroids): 34.4 ± 2.3%"
"COc1ccc(OCCC(=O)NNC(=S)Nc2cc(Cl)ccc2Cl)cc1 [F06, N1-(2,5-dichlorophenyl)-2-[3-(4-methoxyphenoxy)propanoyl]hydrazine-1-carbothioamide]",88 ± 2.5,80.1 ± 1.7,"Expression of apoptosis-related genes (Bax, P53, Bcl-2) (MCF7 breast cancer cells): greater ability to downregulate Bcl-2 while upregulating both P53 and Bax expression compared to the other compounds; IC50 (MCF7 3D spheroids; [1]): < 26 µM; IC50 (MCF7 3D spheroids; [2]): 24.8 ± 0.6 µM; Cytotoxic effect% ± SD RPE1(50µM) (hTERT-RPE1 3D spheroids): 18.4 ± 0.5%"
"Cc1nc(-c2ccc(S(=O)(=O)Nc3ccc4c(c3)OCCO4)s2)cs1 [G04, N-(2,3-dihydro-1,4-benzodioxin-6-yl)-5-(2-methyl-1,3-thiazol-4-yl)-2-thiophenesulfonamide]",6.3 ± 0.3,0,
COC(=O)c1sccc1S(=O)(=O)Nc1ccc(-c2cn3c(n2)SCC3)cc1 [G05],,,"% inhibition 3D (MCF7 3D spheroids; MCF7 3D spheroids, 50 µM): 35.1%; Mean of % cytotoxicity ± S.D (MCF7 3D spheroids; MCF7 3D spheroids, 50µM, 120 h): 35.1 ± 0.6%; % inhibition 2D (MCF7; MCF7 monolayer, 50 µM): 65.7%; Mean of % cytotoxicity ± SD (MCF7; MCF7 monolayer, 50µM, 72 h, MTT): 65.7 ± 1.0%"
"O=C(NNC1=Nc2ccccc2SC1)c1ccc(F)cc1 [G06, N'-(2H-1,4-benzothiazin-3-yl)-4-fluorobenzohydrazide]",52.3 ± 2.3,93.4 ± 1.6,
"NS(=O)(=O)c1cccc(NC(=O)c2cccnc2Oc2ccccc2)c1 [G07, N-[3-(aminosulfonyl)phenyl]-2-phenoxynicotinamide]",35.1 ± 0.77,0,
"N#CCc1ccc(NC(=O)Nc2ccc(OC(F)(F)F)cc2)cc1 [G08, N-[4-(cyanomethyl)phenyl]-N'-[4-(trifluoromethoxy)phenyl]urea]",56.2 ± 3,82.8 ± 0.76,
"Cc1c(NCN2C(=O)CCC2=O)cc2c(c1[N+](=O)[O-])C(C)(C)CC2(C)C [G09, 1-{[(1,1,3,3,6-pentamethyl-7-nitro-2,3-dihydro-1H-inden-5-yl)amino]methyl}pyrrolidine-2,5-dione]",66.5 ± 1.1,100 ± 0.005,
"ON=Cc1ccc(-c2ccccc2OC(F)(F)F)o1 [G10, 5-[2-(trifluoromethoxy)phenyl]-2-furaldehyde oxime]",54.4 ± 1.2,100 ± 0.003,
"CC(=O)Nc1ccc(C=C(C#N)C(N)=O)cc1 [G11, 3-[4-(acetylamino)phenyl]-2-cyanoacrylamide]",60.8 ± 1.23,15.6 ± 1.7,
"Clc1ccc(OCCCCCCCCCCOc2ccc(Cl)cc2)cc1 [H02, 1,10-bis(4-chlorophenoxy)decane]",3.5 ± 0.8,68.7 ± 2.7,
"Cc1ccc2[nH]c(SCC(=O)NC3Cc4ccccc4C3)nc2c1 [H03, N-(2,3-dihydro-1H-inden-2-yl)-2-[(5-methyl-1H-benzimidazol-2-yl)thio]acetamide]",15.8 ± 0.11,88.5 ± 5.8,
"O=C(Nc1ccc2c(c1)COCO2)c1cc2ccccc2oc1=O [H04, N3-(4H-1,3-benzodioxin-6-yl)-2-oxo-2H-chromene-3-carboxamide]",28 ± 0.6,46 ± 0.8,
"CS(=O)(=O)CC(N)=S [H05, 2-(methylsulfonyl)ethanethioamide]",19.3 ± 0.5,24.1 ± 1.17,
"O=C(O)c1ccc(-c2ccsc2)cc1 [H06, 4-(3-thienyl)benzoic acid]",26.1 ± 0.4,7.8 ± 0.23,
"Cc1cc(Br)c(NC(=O)C(Cl)Cl)c(Br)c1 [H07, N1-(2,6-dibromo-4-methylphenyl)-2,2dichloroacetamide]",40.6 ± 0.7,65.3 ± 2.3,
"CC(C)N1CC(COc2ccc(Br)cc2)OC1=O (stereo not shown) [H08, 5-[(4-bromophenoxy)methyl]-3-isopropyl-1,3-oxazolan-2-one]",49 ± 1.4,18 ± 2.23,
"COC(=O)c1cc(C=C(C#N)C#N)c(OC)cc1OC [H09, methyl 5-(2,2-dicyanovinyl)-2,4-dimethoxybenzoate]",80.8 ± 0.77,86.2 ± 1.7,IC50 (MCF7 3D spheroids; [1]): 41.2 ± 0.83 µM; Cytotoxic effect% ± SD RPE1(50µM) (hTERT-RPE1 3D spheroids): 41.2 ± 1.6%; Fold increase (apoptosis signal vs DMSO negative control) (MCF7 cell line): 2.56 fold
"CCOC(=O)N1CCC(=NNc2ccc([N+](=O)[O-])cc2[N+](=O)[O-])CC1 [H10, ethyl 4-[2-(2,4-dinitrophenyl)hydrazono]piperidine-1-carboxylate]",60.6 ± 1.1,27.5 ± 1.4,
"FC(F)(F)c1ccnc(NCc2ccco2)n1 [H11, N2-(2-furylmethyl)-4-(trifluoromethyl)pyrimidin-2-amine]",68.5 ± 0.65,0,
"N.N.[Cl][Pt][Cl] [cisplatin, reference compound]",,,"Expression of inflammatory markers (IL-6, TNFα, MMP1) (MCF7 breast cancer cells): milder pro-inflammatory effects compared to the tested three compounds; IC50 (MCF7 3D spheroids; [2]): 31.7 ± 1.5 µM"

# — publication PMC12663132, “Assessment of cytotoxicity of some synthetic compounds against breast carcinoma spheroids with subsequent analysis of pro-apoptotic and gene expression” (Scientific Reports, 2025)
